Here are results for 74 compounds from the RepoRT retention time repository (doi:10.1021/acs.analchem.2c02893).

This data set is described as follows: RP, Thermo Scientific Acclaim RSLC 120 C18, 100 × 2.1 mm, 2.2 µm, 30 °C, 0.2 mL/min, estimated dead time 1.1 min; A: 90% water + 10% methanol + 0.01% formic acid + 5 mM ammonium formate, pH 3.61; B: methanol + 0.01% formic acid + 5 mM ammonium formate, pH 3.61; gradient (min/%B) 0/1 1/1 2/39 13/99.9 15/99.9 15.1/1 20.1/1. As to conditions: stereoisomer not certain.
Turning to `O=c1oc2ccccc2c(O)c1C1CC(c2ccc(-c3ccc(Br)cc3)cc2)Cc2ccccc21` (centres undefined) [Brodifacoum], the LC retention time was 13 min.

Consider `Cc1nnc2n1-c1ccc([N+](=O)[O-])cc1C(c1ccccc1)=NC2` [Nitrazolam], for which the LC retention time is 6.91 min. `CCC1(C2OC(C3OC(O)(CO)C(C)CC3C)CC2C)CCC(C2(C)CCC3(CC(O)C(C)C(C(C)C(OC)C(C)C(=O)O)O3)O2)O1` (centres undefined) [Monensin]: the LC retention time is 13.8 min. In the case of `CCN(Cc1ccncc1)C(=O)C(CO)c1ccccc1` (centres undefined) [Tropicamide], the LC retention time was 6.03 min.

Consider `CC(COc1ccc(Oc2ccccc2)cc1)Oc1ccccn1` (centres undefined) [Pyriproxyfen], for which the LC retention time was 12.6 min. Regarding `COc1ccc(Cl)cc1C(=O)NCCc1ccc(S(=O)(=O)NC(=O)NC2CCCCC2)cc1` [Glibenclamide], the LC retention time was 9.98 min. With `CN1CCN(C(c2ccccc2)c2ccc(Cl)cc2)CC1` (centres undefined) [Chlorcyclizine] the figure was 8.28 min; with `CNC(=O)Oc1cccc2c1OC(C)(C)O2` [Bendiocarb], 7.02 min.

In the case of `Nc1nc2ccc(OC(F)(F)F)cc2s1` [Riluzole], the LC retention time is 9.12 min.

For the compound `c1ccc(CN(CCN2CCCC2)c2ccccc2)cc1` [Histapyrrodine], the LC retention time is 7.19 min. With `CCn1cc(C(=O)O)c(=O)c2ccc(C)nc21` [Nalidixic acid] the figure was 7.06 min; with `CCCCCn1nc(C(=O)NC(C(N)=O)C(C)C)c2ccccc21` (centres undefined) [AB-PINACA], 10.5 min. In the case of `CCOc1nc2cccc(C(=O)O)c2n1Cc1ccc(-c2ccccc2-c2nn[nH]n2)cc1` [Candesartan], the LC retention time was 7.93 min.

Consider `CC(=O)NCCCS(=O)(=O)O` [Acamprosat], for which the LC retention time is 1.4 min.

Regarding `O=C(NC(=O)c1c(F)cccc1F)Nc1ccc(Cl)cc1` [Diflubenzuron], the LC retention time is 10.6 min. With `OC(c1ccc(F)cc1)(c1cncnc1)c1ccccc1Cl` (centres undefined) [Nuarimol], the LC retention time is 9.17 min. With `COc1ccccc1OCC(O)COC(N)=O` (centres undefined) [Methocarbamol] the figure was 5.21 min. In the case of `CCOC(=O)c1ccccc1S(=O)(=O)NC(=O)Nc1nc(Cl)cc(OC)n1` [Chlorimuronethyl], the LC retention time was 9.3 min. With `CON=C(C(=O)NC1C(=O)N2C(C(=O)[O-])=C(C[n+]3cccc4c3CCCC4)CSC12)c1csc(N)n1` (centres undefined) [Cefquinome] the figure was 3.76 min. With `CSc1ccc2c(c1)N(CCC1CCCCN1C)c1ccccc1S2=O` (centres undefined) [Thioridazine-5-sulfoxide] the figure was 6.64 min; with `CCOC(=O)C(CCc1ccccc1)NC(C)C(=O)N1C(C(=O)O)CC2CCCC21` (centres undefined) [Ramipril], 8.56 min.

Take `NC(=O)CS(=O)C(c1ccccc1)c1ccccc1` (centres undefined) [Modafinil]: the LC retention time is 6.76 min.

`CCOC(=O)CC(SP(=O)(OC)OC)C(=O)OCC` (centres undefined) [Malaoxon]: the LC retention time is 7.01 min. With `CC12CCC3C4CCC(=O)C=C4CCC3C1CCC2O` (centres undefined) [Nandrolone] the figure was 9.37 min; with `CN1CCc2cccc3c2C1Cc1ccc(O)c(O)c1-3` (centres undefined) [Apomorphine], 4.28 min; with `Cc1ccc(N(SC(F)(Cl)Cl)S(=O)(=O)N(C)C)cc1` [Tolyfluanid], 10.8 min.

For `COC(=O)C(C)Oc1ccc(Oc2ccc(Cl)cc2Cl)cc1` (centres undefined) [Diclofop-methyl], the LC retention time is 12.3 min. Regarding `CC(C)Nc1nc(N)nc(Cl)n1` [Atrazine-desethyl], the LC retention time is 5.73 min. Consider `CCC(C(=O)c1ccc2c(c1)OCO2)N1CCCC1` (centres undefined) [MDPBP], for which the LC retention time is 4.49 min. Regarding `CNC(C)C(=O)c1ccc(C)cc1` (centres undefined) [Mephedrone], the LC retention time was 4.49 min. Regarding `COC1CC(CC2CCC(C)C(C(C)C(=O)O)O2)OC2(OC(C)(C3CCC(C)(C4OC(C5OC(O)(CO)C(C)CC5C)CC4C)O3)CC2C)C1C` (centres undefined) [Nigericin], the LC retention time is 13.9 min. With `Cc1nc2n(c(=O)c1CCN1CCC(c3noc4cc(F)ccc34)CC1)CCCC2O` (centres undefined) [Risperidone-9-OH (Paliperidone)] the figure was 5.33 min; with `CCCC(C)C(=O)Nc1ccc(C)c(Cl)c1` (centres undefined) [Pentanochlor], 10.6 min; with `CCCCCCCC(C)(C)c1ccc(C2CCCC(O)C2)c(O)c1` (centres undefined) [CP 47-497-C8], 13.5 min.

With `Cc1cc(Cl)ccc1OC(C)C(=O)O` (centres undefined) [Mecoprop], the LC retention time was 8.27 min.

Regarding `O=C(NC(CO)C(O)c1ccc([N+](=O)[O-])cc1)C(Cl)Cl` (centres undefined) [CAF-3], the LC retention time was 12.7 min. With `CC(C)(C)c1ccc(CCOc2ncnc3ccccc23)cc1` [Fenazaquin] the figure was 13.7 min; with `CC1(C)C(C(=O)OC(C#N)c2cccc(Oc3ccccc3)c2)C1C(Br)C(Br)(Br)Br` (centres undefined) [Tralomethrin], 13.6 min. Then `OC(c1cc(C(F)(F)F)nc2c(C(F)(F)F)cccc12)C1CCCCN1` (centres undefined) [Mefloquine], with 8.59 min. Regarding `CCCCCn1nc(C(=O)Oc2cccc3cccnc23)c2ccccc21` [NPB-22], the LC retention time is 11.4 min. Then `CN1CC(=O)N2C(Cc3c([nH]c4ccccc34)C2c2ccc3c(c2)OCO3)C1=O` (centres undefined) [Tadalafil], with 8.26 min; and `Fc1ccc(C2CCNCC2COc2ccc3c(c2)OCO3)cc1` (centres undefined) [Paroxetine], with 7.87 min. With `NCC(O)c1cccc(O)c1` (centres undefined) [Fenefrine-Nor] the figure was 1.81 min; with `C#CCOC(=O)C(C)Oc1ccc(Oc2ncc(Cl)cc2F)cc1` (centres undefined) [Clodinafop-propargyl], 10.7 min. Regarding `CNC(=O)Oc1ccc(N(C)C)c(C)c1` [Aminocarb  (Metacil)], the LC retention time is 5.15 min.

In the case of `CC(=O)OC1C(C)OC(n2cc(F)c(N)nc2=O)C1OC(C)=O` (centres undefined) [Cytidine-2' 3'-di-O-acetyl-5'-deoxy-5-fluoro], the LC retention time was 5.06 min. Take `C#CC1(OC(C)=O)CCC2C3CCC4=CC(=O)CCC4C3CCC21C` (centres undefined) [Norethisterone acetate]: the LC retention time was 10.8 min.

Take `CC(C)C(NC(=O)c1nn(Cc2ccc(F)cc2)c2ccccc12)C(N)=O` (centres undefined) [AB-FUBINACA]: the LC retention time was 9.59 min.

`NC1Cc2ccc(I)cc2C1` (centres undefined) [5-Iodo-2-aminoindane (5-IAI)]: the LC retention time is 5.87 min. In the case of `CSc1nc2cc(Oc3cccc(Cl)c3Cl)c(Cl)cc2[nH]1` [Triclabendazole], the LC retention time was 12 min. Take `CC(C)(C)NCC(O)c1ccc(O)c(CO)c1` (centres undefined) [Albuterol / Salbutamol]: the LC retention time was 3.23 min. With `CC1=C(CC(=O)O)c2cc(F)ccc2C1=Cc1ccc(S(C)=O)cc1` (centres undefined) [Sulindac] the figure was 8.24 min. Take `COC(=O)C(NC(=O)c1nn(Cc2ccc(F)cc2)c2ccccc12)C(C)(C)C` (centres undefined) [MDMB-FUBINACA]: the LC retention time was 11.3 min. For `CNC(C)C(=O)c1ccc(C)c(C)c1` (centres undefined) [DMMC (3-4-)], the LC retention time is 5.23 min. Consider `NC(=O)c1cc[n+](CC2=C(C(=O)[O-])N3C(=O)C(NC(=O)Cc4cccs4)C3SC2)cc1` (centres undefined) [Cefalonium], for which the LC retention time is 4.03 min. Regarding `Nc1ccc2c(c1)C(c1ccccc1)=NCC(=O)N2` [Nitrazepam- 7-Amino], the LC retention time is 4.78 min.

As to `CCCCNc1cc(C(=O)O)cc(S(N)(=O)=O)c1Oc1ccccc1` [Bumetanide], the LC retention time was 7.83 min. With `CN(C)C(=S)SSC(=S)N(C)C` [Thiram (Tetramethylthiuramdisulfide.TMTD)] the figure was 6.8 min; with `CNCC(O)c1ccc(O)c(O)c1` (centres undefined) [Epinephrine], 1.38 min. With `Cc1ncc2n1-c1ccc(Cl)cc1C(c1ccccc1F)=NC2` [Midazolam] the figure was 8.63 min; with `CC(C)C(=O)C1(C(=O)Nc2ccccc2)OC1(C(=O)c1ccc(F)cc1)c1ccccc1` (centres undefined) [Atorvastatin IMP D (epoxide)], 10.3 min; with `CCNc1nc(NC(C)(C)C)nc(OC)n1` [Terbumeton], 9.16 min. On to `CCCN1CC(NS(=O)(=O)N(CC)CC)CC2Cc3c(O)cccc3CC21` (centres undefined) [Quinagolide], for which the LC retention time was 5.24 min. With `CCOP(=S)(OCC)Oc1ccc(S(C)(=O)=O)cc1` [Fensulfothion-sulfon], the LC retention time was 8.48 min. For the compound `CC(C)Oc1cccc(NC(=O)c2ccccc2C(F)(F)F)c1` [Flutolanil], the LC retention time was 9.52 min. With `O=C(O)Cc1ccccc1Nc1c(Cl)cccc1Cl` [Diclofenac] the figure was 10.2 min; with `CN1Cc2c(N)cccc2C(c2ccccc2)C1` (centres undefined) [Nomifensine], 5.42 min. Then `Cc1cccc(C)c1NC(=O)C1CCCCN1C` (centres undefined) [Mepivacaine], with 4.66 min; and `CCCCC(C#N)(Cn1cncn1)c1ccc(Cl)cc1` (centres undefined) [Myclobutanil], with 9.74 min.

Turning to `COc1nc(C)nc(NC(=O)NS(=O)(=O)c2ccccc2OCCCl)n1` [Triasulfuron], the LC retention time is 6.6 min.

Take `COCc1c(C(C)C)nc(C(C)C)c(C=CC(O)CC(O)CC(=O)O)c1-c1ccc(F)cc1` (centres undefined) [Cerivastatin]: the LC retention time was 11.6 min. As for `CC(C(=O)c1ccccc1)N1CCCC1` (stereo not drawn) [PPP- alpha], the LC retention time was 4.01 min. Then `Cn1ncc(N)c(Cl)c1=O` [Chloridazone-methyl-desphenyl], with 3.53 min.

For the compound `COP(=S)(OC)Oc1ccc([N+](=O)[O-])c(Cl)c1` [Chlorthion], the LC retention time is 10.2 min.
